From PMC6634946 (The FEBS journal, 2019)

Key:
Format in all cases: cell-based, human
[1] = test system: U-2 OS cells; assay: Western blot analysis of p53, p21 expression; settings: 24 hours, (R)-5a effect at 5 and 10 μM
[2] = test system: U-2 OS cells; assay: Real-time PCR of p53-target genes; settings: 6 hours, 10 μM (R)-5a, 5 μM RG7388, normalized to GAPDH
[3] = test system: U-2 OS cells; assay: Caspase 3/7 activity assay; settings: 24 or 48 hours
[4] = test system: SJSA-1 cells; assay: Caspase 3/7 activity assay; settings: SJSA-1, 24 or 48 hours
[5] = test system: U-2 OS cells; assay: Cell cycle analysis; settings: 24 hours, 5 μM, control 55%

| SMILES | expression of p53 and p21 protein [1] | MDM2 and CDKN1A transcripts [2] | induction of apoptosis (caspase 3/7 activity) [3] | induction of apoptosis (caspase 3/7 activity) [4] | percentage of S-phase cells [5] [%] |
| --- | --- | --- | --- | --- | --- |
| COc1ccc(C2=N[C@@H](c3ccc(Cl)cc3)[C@@H](c3ccc(Cl)cc3)N2C(=O)N2CCNC(=O)C2)c(OC(C)C)c1 [Nutlin-3] | increased the expression of p21 and p53 | – | – | – | – |
| COc1cc(C(=O)O)ccc1NC(=O)[C@@H]1N[C@@H](CC(C)(C)C)[C@](C#N)(c2ccc(Cl)cc2F)[C@H]1c1cccc(Cl)c1F [RG7388, Idasanutlin] | increased the expression of p21 and p53 | significant increase of MDM2 and CDKN1A transcripts | not in U-2 OS cells | induced apoptosis only in SJSA-1 cells | 0.5 |
| CN[C@@H]1C[C@H]2O[C@@](C)([C@@H]1OC)n1c3ccccc3c3c4c(c5c6ccccc6n2c5c31)C(=O)NC4 [Staurosporine] | – | – | induced apoptosis in both cell lines | induced apoptosis in both cell lines | – |
